Test results from the supplement of paper PMC10307832.

How the values were obtained:
Experiment in all cases: relative viability (nuclei count vs DMSO), 5 days (fraction); higher = more cells survive
[1] = compound: COC1=CC=C(C=C1)CN2C=CC3=C2C=C(C=C3)C(=O)NO + CCNC(=O)c1noc(-c2cc(C(C)C)c(O)cc2O)c1-c1ccc(CN2CCOCC2)cc1 [Luminespib] (partner 0.01 µM)
Procedure, shortened: (§1)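 A single step with final 0.05% Triton X-100, 1% formaldehyde and 1 ug/ml Hoechst fixed the cells and stained nuclei 5 days after treatment. Lung cancer cell lines in 1536-well plates had been treated by pin tool the day after seeding with one drug alone or a fixed anchor-drug dose plus five library-drug doses (not always all listed) in √10 steps, and nuclei were counted on 4× images. Relative viability is the ratio of nuclei in treated wells to nuclei in vehicle wells, taken as the median of duplicate plates.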

[2] = compound: COC1=CC=C(C=C1)CN2C=CC3=C2C=C(C=C3)C(=O)NO + Nc1nc2[nH]cc(CCc3ccc(C(=O)N[C@@H](CCC(=O)O)C(=O)O)cc3)c2c(=O)[nH]1 [Pemetrexed] (partner 0.2 µM)
Procedure, shortened: as §1

Veliparib + OSI-027 = compound: C[C@]1(c2nc3c(C(N)=O)cccc3[nH]2)CCCN1 [Veliparib] + COc1cccc2cc(-c3nc([C@H]4CC[C@H](C(=O)O)CC4)n4ncnc(N)c34)[nH]c12 [OSI-027] (partner 0.5 µM)
Procedure, shortened: as §1

[3] = compound: COC1=CC=C(C=C1)CN2C=CC3=C2C=C(C=C3)C(=O)NO + C[C@@H](Oc1cc(-c2cnn(C3CCNCC3)c2)cnc1N)c1c(Cl)ccc(F)c1Cl [Crizotinib] (partner 1 µM)
Procedure, shortened: as §1

Cell Line | relative viability ([1]; first compound 0.08 µM) | relative viability ([1]; first compound 0.253 µM) | relative viability ([1]; first compound 0.8 µM) | relative viability ([1]; first compound 2.53 µM) | relative viability ([1]; first compound 8 µM) | relative viability ([2]; first compound 0.08 µM) | relative viability ([2]; first compound 0.253 µM) | relative viability ([2]; first compound 0.8 µM) | relative viability ([2]; first compound 2.53 µM) | relative viability ([2]; first compound 8 µM) | relative viability (Veliparib + OSI-027; first compound 0.02 µM) | relative viability (Veliparib + OSI-027; first compound 0.06325 µM) | relative viability (Veliparib + OSI-027; first compound 0.2 µM) | relative viability (Veliparib + OSI-027; first compound 0.6325 µM) | relative viability (Veliparib + OSI-027; first compound 2 µM) | relative viability ([3]; first compound 0.08 µM) | relative viability ([3]; first compound 0.253 µM) | relative viability ([3]; first compound 0.8 µM) | relative viability ([3]; first compound 2.53 µM) | relative viability ([3]; first compound 8 µM)
NCI-H1437 | 1 | 1.13 | 1.09 | 1.18 | 1.13 | 0.334 | 0.358 | 0.319 | 0.305 | 0.3 | 0.694 | 0.959 | 0.878 | 0.759 | 0.844 | 0.661 | 0.961 | 0.993 | 0.989 | 0.939
NCI-H1563 | 0.507 | 0.506 | 0.517 | 0.551 | 0.488 | 0.489 | 0.708 | 0.839 | 0.728 | 0.761 | 0.672 | 0.741 | 0.799 | 0.751 | 0.77 | 0.718 | 0.847 | 0.957 | 0.921 | 0.943
NCI-H1650 | 0.194 | 0.189 | 0.194 | 0.213 | 0.203 | 0.286 | 0.428 | 0.378 | 0.392 | 0.308 |  | 0.501 | 0.691 | 0.502 | 0.561 | 0.902 | 0.982 | 1.05 | 0.915 | 0.693
NCI-H1651 | 0.927 | 0.885 | 1.02 | 0.816 | 0.655 | 0.561 | 0.523 | 0.587 | 0.512 | 0.56 | 0.699 | 0.626 | 0.619 | 0.659 | 0.697 | 0.853 | 0.928 | 0.859 | 0.82 | 0.826
NCI-H1666 | 0.911 | 1.07 | 1.01 | 0.987 | 1.15 | 0.761 | 0.914 | 0.84 | 0.918 | 0.87 | 0.938 | 0.791 | 0.763 | 0.806 | 0.848 | 1.18 | 1.08 | 1.08 | 0.992 | 1.03
NCI-H1734 |  | 0.219 | 0.218 | 0.181 | 0.184 |  | 0.413 | 0.427 | 0.4 | 0.414 | 0.44 | 0.575 | 0.57 | 0.585 | 0.67 |  | 0.678 | 0.683 | 0.6 | 0.652
NCI-H1755 | 0.398 | 0.312 | 0.499 | 0.508 | 0.356 | 0.421 | 0.379 | 0.443 | 0.437 | 0.512 | 0.767 | 0.713 | 0.683 | 0.586 | 0.645 | 0.789 | 0.852 | 0.858 | 0.928 | 0.879
NCI-H1792 | 0.37 | 0.638 | 0.529 | 0.35 | 0.414 | 0.907 | 0.952 | 1 | 1.05 | 0.832 | 0.738 | 0.708 | 0.73 | 0.707 | 0.664 | 0.969 | 0.905 | 1.01 | 0.918 | 0.697
